Reference: patent publication US20230416232A1, “PYRIMIDINE COMPOUNDS, COMPOSITIONS, AND MEDICINAL APPLICATIONS THEREOF” (Blueprint Medicines Corporation, priority 2020, published 2023)
Structures can show the parent of a compound that is named as a salt.

What was measured:
Format in all cases: cell-based
[1] = target: EGFR (A767_dupASV) expressing Ba/F3 stable cell line (Homo sapiens, UniProt P00533, DUP767-769, cells depend on it); test: Cellular proliferation (Alamar Blue) assay, EGFR (A767_dupASV) Ba/F3; conditions: 72 hr, read-out: A767 IC50
In short: (§1)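 Ba/F3 cells (15,000/well, RPMI + 10% FBS) or A431 cells (5000/well, DMEM + 10% FBS) were seeded for 16-18 h at 37 °C, then treated 72 h with compound at a final 10-0.0005 μM (3-fold dilutions). Alamar Blue was added for 3 h before read-out.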

[2] = target: EGFR (H773insNPH) expressing Ba/F3 stable cell line (Homo sapiens, UniProt P00533, DUP771-773, cells depend on it); test: Cellular proliferation (Alamar Blue) assay, EGFR (H773insNPH) Ba/F3; conditions: 72 hr, read-out: NPH IC50
Protocol: Cell line details: • 1. EGFR(D770_N771insSVD) expressing Ba/F3 stable cell line • 2. EGFR (A767_dupASV) expressing Ba/F3 stable cell line • 3. A431 cells • 4. EGFR (H773insNPH) expressing Ba/F3 stable cell line • 5. HER2 (A775_G776insYVMA) expressing Ba/F3 stable cell line
• 1. Seed cells at 5000 for A431 and 15,000 cells for Ba/F3 in 100 μL/well in complete media (for A431: DMEM with 10% FBS and for Ba/F3 cells: RPMI with 10% FBS) in 96-well tissue culture plate. Leave outer wells without cells for background measurements. Incubate at 37 degree Celsius in 5% CO2 humidified incubator for 16-18 hours. • 2. Add 0.025 ml of 5X concentration compound dilution or DMSO control. Final compound concentration range is 10-0.0005 μM prepared in 3-fold serial dilutions. Incubate for 72 hr at 37 degree Celsius in 5% CO2 humidified incubator. • 3. Add 0.0125 ml Alamar Blue™ reagent to each well with multi-channel pipette and tap gently on each side of the plate to mix. Incubate for 3 hours at 37 degree Celsius in 5% CO2 humidified incubator. • 4. […] Data analysis was performed using XLfit 5.5.0.5.

[3] = target: HER2 (A775_G776insYVMA) expressing Ba/F3 stable cell line (Homo sapiens, UniProt P04626, DUP772-775, cells depend on it); test: Cellular proliferation (Alamar Blue) assay, HER2 (A775_G776insYVMA) Ba/F3; conditions: HER2 (A775_G776insYVMA) Ba/F3 cells; 72 hr; Alamar Blue; read-out: YVMA IC50
In short: as §1

A431 cells = test: Cellular proliferation (Alamar Blue) assay, A431 cells; conditions: Homo sapiens, A-431, 72 h, A431 cells; 72 hr; Alamar Blue; read-out: A431 IC50
In short: as §1

[4] = target: EGFR(D770_N771insSVD) expressing Ba/F3 stable cell line (Homo sapiens, UniProt P00533, DUP768-770, cells depend on it); test: Cellular proliferation (Alamar Blue) assay, EGFR(D770_N771insSVD) Ba/F3; conditions: 72 hr, read-out: D770 IC50
In short: as §1

EGFR (H773insNPH) expressing Ba/F3 stable cell line, sequence (P00533 with tags, fused parts or gaps DUP771-773): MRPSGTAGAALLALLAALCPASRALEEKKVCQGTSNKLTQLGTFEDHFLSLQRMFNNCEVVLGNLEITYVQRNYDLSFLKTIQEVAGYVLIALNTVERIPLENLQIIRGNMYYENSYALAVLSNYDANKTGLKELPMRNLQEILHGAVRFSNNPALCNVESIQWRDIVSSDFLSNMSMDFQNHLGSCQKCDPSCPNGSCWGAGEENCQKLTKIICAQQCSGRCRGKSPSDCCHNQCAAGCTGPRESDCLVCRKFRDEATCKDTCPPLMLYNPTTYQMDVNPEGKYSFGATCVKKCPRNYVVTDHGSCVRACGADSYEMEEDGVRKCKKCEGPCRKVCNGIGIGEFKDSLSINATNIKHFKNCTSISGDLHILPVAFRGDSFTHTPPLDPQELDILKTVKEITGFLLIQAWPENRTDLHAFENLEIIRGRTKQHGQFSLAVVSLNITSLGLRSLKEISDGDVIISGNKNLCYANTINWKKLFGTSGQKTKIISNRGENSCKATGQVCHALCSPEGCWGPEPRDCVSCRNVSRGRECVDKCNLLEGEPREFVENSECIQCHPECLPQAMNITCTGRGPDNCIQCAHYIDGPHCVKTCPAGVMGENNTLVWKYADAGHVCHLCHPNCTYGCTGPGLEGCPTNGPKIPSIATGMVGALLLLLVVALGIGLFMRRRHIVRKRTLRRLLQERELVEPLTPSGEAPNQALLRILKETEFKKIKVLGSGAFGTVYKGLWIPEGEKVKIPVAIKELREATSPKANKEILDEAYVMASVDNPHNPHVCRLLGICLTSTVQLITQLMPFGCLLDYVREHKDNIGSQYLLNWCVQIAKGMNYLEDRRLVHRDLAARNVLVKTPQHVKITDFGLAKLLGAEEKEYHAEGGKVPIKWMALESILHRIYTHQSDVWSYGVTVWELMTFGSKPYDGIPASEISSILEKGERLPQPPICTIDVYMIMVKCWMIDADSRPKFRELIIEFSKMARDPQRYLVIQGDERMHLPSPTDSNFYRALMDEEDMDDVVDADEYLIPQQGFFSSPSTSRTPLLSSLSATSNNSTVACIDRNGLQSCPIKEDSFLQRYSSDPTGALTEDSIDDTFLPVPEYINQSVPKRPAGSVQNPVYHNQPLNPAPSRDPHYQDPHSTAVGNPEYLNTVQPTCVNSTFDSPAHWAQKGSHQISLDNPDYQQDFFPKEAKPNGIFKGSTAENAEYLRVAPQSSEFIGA
EGFR(D770_N771insSVD) expressing Ba/F3 stable cell line, sequence (P00533 with tags, fused parts or gaps DUP768-770): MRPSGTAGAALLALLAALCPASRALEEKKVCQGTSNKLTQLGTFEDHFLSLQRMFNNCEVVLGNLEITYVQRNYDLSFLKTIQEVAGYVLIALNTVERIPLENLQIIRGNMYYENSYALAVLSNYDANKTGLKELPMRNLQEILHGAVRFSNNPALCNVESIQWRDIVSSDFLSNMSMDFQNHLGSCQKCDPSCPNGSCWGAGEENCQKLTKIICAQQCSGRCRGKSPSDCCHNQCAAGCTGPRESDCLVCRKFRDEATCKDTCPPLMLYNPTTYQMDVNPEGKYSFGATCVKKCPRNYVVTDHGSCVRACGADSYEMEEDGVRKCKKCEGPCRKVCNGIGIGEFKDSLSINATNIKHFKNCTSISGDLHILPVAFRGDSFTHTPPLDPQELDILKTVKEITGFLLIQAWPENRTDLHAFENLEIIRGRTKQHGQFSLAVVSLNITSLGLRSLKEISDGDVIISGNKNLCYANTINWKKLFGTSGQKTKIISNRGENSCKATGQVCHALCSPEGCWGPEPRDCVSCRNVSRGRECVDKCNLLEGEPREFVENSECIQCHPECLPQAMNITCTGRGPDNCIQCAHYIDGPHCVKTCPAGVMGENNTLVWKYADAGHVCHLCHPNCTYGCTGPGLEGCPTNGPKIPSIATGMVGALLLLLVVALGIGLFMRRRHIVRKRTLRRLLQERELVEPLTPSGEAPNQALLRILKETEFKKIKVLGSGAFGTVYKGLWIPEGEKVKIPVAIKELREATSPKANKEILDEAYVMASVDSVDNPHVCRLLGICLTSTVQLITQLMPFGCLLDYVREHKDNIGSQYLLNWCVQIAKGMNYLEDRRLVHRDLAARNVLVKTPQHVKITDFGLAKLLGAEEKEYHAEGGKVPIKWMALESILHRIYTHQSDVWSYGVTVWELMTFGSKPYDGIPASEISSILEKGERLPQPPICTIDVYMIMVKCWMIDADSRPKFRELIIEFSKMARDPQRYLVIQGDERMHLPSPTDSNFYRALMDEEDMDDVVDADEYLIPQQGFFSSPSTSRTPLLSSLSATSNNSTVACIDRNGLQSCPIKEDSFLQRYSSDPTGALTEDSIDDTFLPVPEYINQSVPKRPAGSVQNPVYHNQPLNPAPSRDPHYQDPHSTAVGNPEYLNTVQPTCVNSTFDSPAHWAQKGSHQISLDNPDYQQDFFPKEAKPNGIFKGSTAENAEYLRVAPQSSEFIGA
EGFR (A767_dupASV) expressing Ba/F3 stable cell line, sequence (P00533 with tags, fused parts or gaps DUP767-769): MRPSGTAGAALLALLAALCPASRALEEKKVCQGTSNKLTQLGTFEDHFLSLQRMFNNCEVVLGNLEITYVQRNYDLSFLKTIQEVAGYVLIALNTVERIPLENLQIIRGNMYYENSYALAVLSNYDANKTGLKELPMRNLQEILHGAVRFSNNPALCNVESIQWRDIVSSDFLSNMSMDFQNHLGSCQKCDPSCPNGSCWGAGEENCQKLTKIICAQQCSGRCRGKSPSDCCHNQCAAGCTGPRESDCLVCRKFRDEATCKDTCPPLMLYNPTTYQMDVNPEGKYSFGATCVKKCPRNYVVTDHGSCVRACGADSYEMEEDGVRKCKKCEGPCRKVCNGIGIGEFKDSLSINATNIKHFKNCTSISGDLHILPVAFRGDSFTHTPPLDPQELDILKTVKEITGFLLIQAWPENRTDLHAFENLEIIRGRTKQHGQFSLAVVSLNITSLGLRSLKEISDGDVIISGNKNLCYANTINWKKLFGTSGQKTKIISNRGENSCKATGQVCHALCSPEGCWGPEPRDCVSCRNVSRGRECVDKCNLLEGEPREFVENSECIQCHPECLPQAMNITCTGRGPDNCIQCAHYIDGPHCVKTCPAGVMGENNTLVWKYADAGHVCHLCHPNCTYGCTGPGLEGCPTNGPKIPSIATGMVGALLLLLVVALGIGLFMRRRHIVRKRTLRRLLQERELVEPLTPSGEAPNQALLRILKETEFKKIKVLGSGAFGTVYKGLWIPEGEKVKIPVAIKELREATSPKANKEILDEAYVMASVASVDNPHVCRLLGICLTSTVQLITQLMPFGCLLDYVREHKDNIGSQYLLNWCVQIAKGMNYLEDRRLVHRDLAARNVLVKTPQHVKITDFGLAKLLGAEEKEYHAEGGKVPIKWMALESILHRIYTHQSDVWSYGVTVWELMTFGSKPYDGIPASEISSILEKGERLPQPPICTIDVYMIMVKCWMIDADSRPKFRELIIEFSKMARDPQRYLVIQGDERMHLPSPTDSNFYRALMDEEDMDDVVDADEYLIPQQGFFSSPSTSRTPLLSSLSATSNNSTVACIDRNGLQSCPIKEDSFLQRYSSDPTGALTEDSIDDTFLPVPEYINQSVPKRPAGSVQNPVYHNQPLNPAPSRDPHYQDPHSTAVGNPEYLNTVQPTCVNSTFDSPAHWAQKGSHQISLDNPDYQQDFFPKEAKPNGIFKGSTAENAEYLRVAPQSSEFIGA
HER2 (A775_G776insYVMA) expressing Ba/F3 stable cell line, sequence (P04626 with tags, fused parts or gaps DUP772-775): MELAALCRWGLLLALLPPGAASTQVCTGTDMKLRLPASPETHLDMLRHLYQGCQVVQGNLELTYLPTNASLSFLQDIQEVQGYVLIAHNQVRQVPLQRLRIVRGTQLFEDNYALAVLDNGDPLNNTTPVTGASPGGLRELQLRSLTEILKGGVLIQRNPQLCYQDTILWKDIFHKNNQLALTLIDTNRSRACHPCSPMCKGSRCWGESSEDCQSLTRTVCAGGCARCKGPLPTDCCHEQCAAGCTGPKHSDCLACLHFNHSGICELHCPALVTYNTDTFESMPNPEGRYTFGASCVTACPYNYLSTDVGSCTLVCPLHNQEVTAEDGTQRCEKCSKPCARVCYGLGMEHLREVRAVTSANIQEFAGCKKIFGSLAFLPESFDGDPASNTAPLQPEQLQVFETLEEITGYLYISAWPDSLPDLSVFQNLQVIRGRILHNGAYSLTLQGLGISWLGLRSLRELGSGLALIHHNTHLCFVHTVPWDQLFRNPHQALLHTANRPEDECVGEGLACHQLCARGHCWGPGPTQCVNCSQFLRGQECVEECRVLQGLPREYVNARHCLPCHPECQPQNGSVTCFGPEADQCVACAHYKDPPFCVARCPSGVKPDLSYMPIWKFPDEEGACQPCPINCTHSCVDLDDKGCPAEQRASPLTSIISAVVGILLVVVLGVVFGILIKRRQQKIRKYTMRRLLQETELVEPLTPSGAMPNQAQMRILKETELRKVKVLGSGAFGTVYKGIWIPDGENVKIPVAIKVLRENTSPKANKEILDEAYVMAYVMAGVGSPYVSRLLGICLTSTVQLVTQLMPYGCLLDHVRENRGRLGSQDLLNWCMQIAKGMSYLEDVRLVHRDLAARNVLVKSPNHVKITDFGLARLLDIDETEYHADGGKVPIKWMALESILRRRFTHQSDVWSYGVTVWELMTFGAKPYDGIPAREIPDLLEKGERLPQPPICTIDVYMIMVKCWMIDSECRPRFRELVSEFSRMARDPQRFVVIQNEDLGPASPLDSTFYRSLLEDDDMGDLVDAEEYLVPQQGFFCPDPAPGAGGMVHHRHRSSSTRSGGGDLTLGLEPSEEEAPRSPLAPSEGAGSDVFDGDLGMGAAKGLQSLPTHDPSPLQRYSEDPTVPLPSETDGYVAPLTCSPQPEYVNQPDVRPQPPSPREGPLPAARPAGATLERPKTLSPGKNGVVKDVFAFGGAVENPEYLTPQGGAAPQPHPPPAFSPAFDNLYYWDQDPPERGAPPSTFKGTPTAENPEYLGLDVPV

| SMILES | GI50 [1] [nM] | GI50 [2] [nM] | GI50 [3] [nM] | IC50 (A431 cells) [nM] | GI50 [4] [nM] |
| --- | --- | --- | --- | --- | --- |
| C=CC(=O)Nc1ccc(F)c(Nc2nc(Nc3cnn(C)c3)ncc2-c2ccc(OC)c(F)c2)c1 [Compound 1, N-(4-fluoro-3-((5-(3-fluoro-4-methoxyphenyl)-2-((1-methyl-1H-pyrazol-4-yl)amino)pyrimidin-4-yl)amino)phenyl)acrylamide] | 36 | 36 | 91 | 269 | 36 |
| C=CC(=O)Nc1ccc(F)c(Nc2nc(Nc3cnn(C)c3)ncc2-c2ccc(OC)c(Cl)c2)c1 [Compound 3, N-(3-((5-(3-chloro-4-methoxyphenyl)-2-((1-methyl-1H-pyrazol-4-yl)amino)pyrimidin-4-yl)amino)-4-fluorophenyl)acrylamide] | 91 | 103 | 432 | 2320 | 90 |
| C=CC(=O)Nc1ccc(F)c(Nc2nc(Nc3cnn(C)c3)ncc2-c2ccc(F)c(Cl)c2)c1 [Compound 6, N-(3-((5-(3-chloro-4-fluorophenyl)-2-((1-methyl-1H-pyrazol-4-yl)amino)pyrimidin-4-yl)amino)-4-fluorophenyl)acrylamide] | 80 | 83 | 187 | 810 | 51 |
| C=CC(=O)Nc1ccc(F)c(Nc2nc(Nc3cnn(C)c3)ncc2-c2ccc(OC)cc2F)c1 [Compound 7, N-(4-fluoro-3-((5-(2-fluoro-4-methoxyphenyl)-2-((1-methyl-1H-pyrazol-4-yl)amino)pyrimidin-4-yl)amino)phenyl)acrylamide] | 97 | 97 | 377 | 229 | 94 |
| C=CC(=O)Nc1ccc(F)c(Nc2nc(Nc3cnn(C)c3)ncc2-c2cc(F)ccc2Cl)c1 [Compound 11, N-(3-((5-(2-chloro-5-fluorophenyl)-2-((1-methyl-1H-pyrazol-4-yl)amino)pyrimidin-4-yl)amino)-4-fluorophenyl)acrylamide] | 262 | 124 | 1070 | 1950 | 194 |
| C=CC(=O)Nc1ccc(F)c(Nc2nc(Nc3cnn(C)c3)ncc2-c2ccc(OC(F)F)c(F)c2)c1 [Compound 16, N-(3-((5-(4-(difluoromethoxy)-3-fluorophenyl)-2-((1-methyl-1H-pyrazol-4-yl)amino)pyrimidin-4-yl)amino)-4-fluorophenyl)acrylamide] | 9 | 24 | 43 | 460 | 10 |
| C=CC(=O)Nc1ccc(F)c(Nc2nc(Nc3cnn(C)c3)ncc2-c2cnc(Cl)c(Cl)c2)c1 [Compound 17, N-(3-((5-(5,6-dichloropyridin-3-yl)-2-((1-methyl-1H-pyrazol-4-yl)amino)pyrimidin-4-yl)amino)-4-fluorophenyl)acrylamide] | 32 | 96 | 42 | 75 | 35 |
| C=CC(=O)Nc1ccc(F)c(Nc2nc(Nc3cnn(C)c3)ncc2-c2ccc(F)c(Br)c2)c1 [Compound 18, N-(3-((5-(3-bromo-4-fluorophenyl)-2-((1-methyl-1H-pyrazol-4-yl)amino)pyrimidin-4-yl)amino)-4-fluorophenyl)acrylamide trifluoroacetate] | 166 | 56 | 220 | 251 | 113 |
| C=CC(=O)Nc1ccc(F)c(Nc2nc(Nc3cnn(C)c3)ncc2-c2ccc(N(C)C)c(F)c2)c1 [Compound 28, N-(3-((5-(4-(dimethylamino)-3-fluorophenyl)-2-((1-methyl-1H-pyrazol-4-yl)amino)pyrimidin-4-yl)amino)-4-fluorophenyl)acrylamide] | 27 | 47 | 271 | 193 | 29 |
| C=CC(=O)Nc1ccc(F)c(Nc2nc(Nc3cnn(C)c3)ncc2-c2cnc(OC)c(Cl)c2)c1 [Compound 31, N-(3-((5-(5-chloro-6-methoxypyridin-3-yl)-2-((1-methyl-1H-pyrazol-4-yl)amino)pyrimidin-4-yl)amino)-4-fluorophenyl)acrylamide trifluoroacetate] | 34 | 92 | 94 | 582 | 50 |
| C=CC(=O)Nc1ccc(F)c(Nc2nc(Nc3cnn(C)c3)ncc2-c2ccc(Cl)c(F)c2)c1 [Compound 33, N-(3-((5-(4-chloro-3-fluorophenyl)-2-((1-methyl-1H-pyrazol-4-yl)amino)pyrimidin-4-yl)amino)-4-fluorophenyl)acrylamide] | 21 | 52 | 73 | 35 | 20 |

Further lines, results first:

| GI50 [1] [nM] | GI50 [2] [nM] | GI50 [3] [nM] | IC50 (A431 cells) [nM] | GI50 [4] [nM] | SMILES |
| --- | --- | --- | --- | --- | --- |
| 39 | 79 | 208 | 200 | 30 | C=CC(=O)Nc1ccc(F)c(Nc2nc(Nc3cnn(C)c3)ncc2-c2ccc(F)c(F)c2)c1 [Compound 5, N-(3-((5-(3,4-difluorophenyl)-2-((1-methyl-1H-pyrazol-4-yl)amino)pyrimidin-4-yl)amino)-4-fluorophenyl)acrylamide] |
| 42 | 79 | 114 | 147 | 28 | C=CC(=O)Nc1ccc(F)c(Nc2nc(Nc3cnn(C)c3)ncc2-c2ccc(C)c(F)c2)c1 [Compound 13, N-(4-fluoro-3-((5-(3-fluoro-4-methylphenyl)-2-((1-methyl-1H-pyrazol-4-yl)amino)pyrimidin-4-yl)amino)phenyl)acrylamide] |
| 45 | 102 | 124 | 84 | 36 | C=CC(=O)Nc1ccc(F)c(Nc2nc(Nc3cnn(C)c3)ncc2-c2cc(F)cc(C(F)F)c2)c1 [Compound 15, N-(3-((5-(3-(difluoromethyl)-5-fluorophenyl)-2-((1-methyl-1H-pyrazol-4-yl)amino)pyrimidin-4-yl)amino)-4-fluorophenyl)acrylamide] |
| 181 | 261 | 1030 | > 10000 | 107 | C=CC(=O)Nc1ccc(F)c(Nc2nc(Nc3cnn(C)c3)ncc2-c2ccc(C(F)(F)F)cc2F)c1 [Compound 21, N-(4-fluoro-3-((5-(2-fluoro-4-(trifluoromethyl)phenyl)-2-((1-methyl-1H-pyrazol-4-yl)amino)pyrimidin-4-yl)amino)phenyl)acrylamide] |
| 87 | 91 | 341 | 49 | 102 | C=CC(=O)Nc1ccc(F)c(Nc2nc(Nc3cnn(C)c3)ncc2-c2ccc(F)c(C(F)(F)F)c2)c1 [Compound 25, N-(4-fluoro-3-((5-(4-fluoro-3-(trifluoromethyl)phenyl)-2-((1-methyl-1H-pyrazol-4-yl)amino)pyrimidin-4-yl)amino)phenyl)acrylamide] |
| 35 | 31 | 112 | 443 | 27 | C=CC(=O)Nc1ccc(F)c(Nc2nc(Nc3cnn(C)c3)ncc2-c2cc(F)cc(F)c2)c1 [Compound 26, N-(3-((5-(3,5-difluorophenyl)-2-((1-methyl-1H-pyrazol-4-yl)amino)pyrimidin-4-yl)amino)-4-fluorophenyl)acrylamide] |
| 31 | 55 | 150 | 73 | 35 | C=CC(=O)Nc1ccc(F)c(Nc2nc(Nc3cnn(C)c3)ncc2-c2cc(F)cc(C(F)(F)F)c2)c1 [Compound 27, N-(4-fluoro-3-((5-(3-fluoro-5-(trifluoromethyl)phenyl)-2-((1-methyl-1H-pyrazol-4-yl)amino)pyrimidin-4-yl)amino)phenyl)acrylamide] |
| 159 | 160 | 1160 | > 10000 | 294 | C=CC(=O)Nc1ccc(F)c(Nc2nc(Nc3cnn(C)c3)ncc2-c2cc(Cl)cc(Cl)c2)c1 [Compound 32, N-(3-((5-(3,5-dichlorophenyl)-2-((1-methyl-1H-pyrazol-4-yl)amino)pyrimidin-4-yl)amino)-4-fluorophenyl)acrylamide] |
